Key:
[1] = target: T1, PPARδ-RXRα heterodimer (Homo sapiens, UniProt Q03181); assay: PPARδ-RXRα heterodimer ligand activity, luciferase reporter in COS-1 transformant (Test Example 4); assay type: cell-based; conditions: COS-1 transformant (hPPARδ, hRXRα, reporter), 36-48 hours, concentration for 50% of the maximum fold induction
T1 construct: expressed in transfected cells; host or cells: COS-1
T1 sequence (Q03181 1-441): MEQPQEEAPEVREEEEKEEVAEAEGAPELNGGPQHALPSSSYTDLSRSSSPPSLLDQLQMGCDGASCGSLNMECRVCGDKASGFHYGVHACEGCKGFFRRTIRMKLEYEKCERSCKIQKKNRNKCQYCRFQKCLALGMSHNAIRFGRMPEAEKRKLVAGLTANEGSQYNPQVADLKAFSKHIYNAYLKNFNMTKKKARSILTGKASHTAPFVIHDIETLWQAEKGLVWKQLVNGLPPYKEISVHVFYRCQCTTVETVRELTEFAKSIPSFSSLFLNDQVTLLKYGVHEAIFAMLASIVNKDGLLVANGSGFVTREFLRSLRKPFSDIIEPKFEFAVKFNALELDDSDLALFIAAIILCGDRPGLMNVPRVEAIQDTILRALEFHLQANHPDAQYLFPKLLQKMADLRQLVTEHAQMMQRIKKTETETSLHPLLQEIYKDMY
T1 sequence (P19793 1-462 partner): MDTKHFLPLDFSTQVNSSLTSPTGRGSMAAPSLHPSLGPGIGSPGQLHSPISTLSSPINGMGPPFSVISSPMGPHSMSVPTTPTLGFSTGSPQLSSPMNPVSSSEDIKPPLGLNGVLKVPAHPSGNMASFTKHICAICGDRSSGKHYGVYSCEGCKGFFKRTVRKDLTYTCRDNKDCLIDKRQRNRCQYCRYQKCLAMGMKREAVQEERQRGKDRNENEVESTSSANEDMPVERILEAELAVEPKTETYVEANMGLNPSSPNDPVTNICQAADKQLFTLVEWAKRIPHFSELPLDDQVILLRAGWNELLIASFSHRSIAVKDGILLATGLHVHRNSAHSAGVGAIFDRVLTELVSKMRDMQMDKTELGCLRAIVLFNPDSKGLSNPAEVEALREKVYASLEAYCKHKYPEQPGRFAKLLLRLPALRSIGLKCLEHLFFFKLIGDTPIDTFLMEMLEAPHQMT
Summary of the method: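 COS-1 cells transiently co-transfected with human PPARδ, human RXRα, PPRE-luciferase reporter and pRL-tk, then exposed to compound 36-48 h at 37 °C in DMEM with 0.1% fatty acid-free BSA. Luciferase read as fold induction over untreated; EC50 at 50% of maximal fold induction.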

melting point [°C] | EC50 [1] [nM] | SMILES
76 to 77 | 45 | CCC(CC)c1nn(-c2ccc(C(F)(F)F)nn2)cc1CCCOc1c(C)cccc1CC(=O)O [Example 340, [2-(3-{3-(1-ethylpropyl)-1-[6-(trifluoromethyl)pyridazin-3-yl]-1H-pyrazol-4-yl}propoxy)-3-methylphenyl]acetic acid]
94 to 95 | 72 | CCC(CC)c1nn(-c2ccc(Br)cn2)cc1CCCOc1c(CC(=O)O)cccc1OC [Example 351, (2-{3-[1-(5-bromo-2-pyridinyl)-3-(1-ethylpropyl)-1H-pyrazol-4-yl]propoxy}-3-methoxyphenyl)acetic acid]
96 to 97 | 150 | Cc1cccc(CC(=O)O)c1OCCCc1cn(-c2ccc(C(F)(F)F)nn2)nc1C(C)(C)C [Example 367, [2-(3-{3-tert-butyl-1-[6-(trifluoromethyl)pyridazin-3-yl]-1H-pyrazol-4-yl}propoxy)-3-methylphenyl]acetic acid]

— patent US20060148858A1, “1, 2-Azole derivatives with hypoglycemic and hypolipidemic activity” (priority 2002, published 2006)
